This is an account of results in patent publication US20070032418A1, “Small-molecule inhibitors of angiogenin and rnases and in vivo and in vitro methods of using same” (Ambion, Inc, priority 2003, published 2007).

Where two headings read alike, the source gives them in different places.

This assay deals with angiogenin (ANG) (Homo sapiens, UniProt P03950). As to the kind of experiment: Inhibition of ANG ribonucleolytic activity, HPLC assay of oligonucleotide cleavage. The assay is classed as biochemical. How it is done: Reaction mixtures with and without test compounds were chromatographed on a Mono Q anion-exchange column with an NaCl gradient in 10 mM Tris, pH 8. […] This information was used to calculate kcat/Km values, which were then fitted to the equation (kcat/Km)i=(kcat/Km)0/[…], where (kcat/Km)i and (kcat/Km)0 are defined as the values in the presence and absence of inhibitor, respectively, and [I] is defined as the inhibitor concentration. At least four concentrations (in a range of about 10 μM-above 100 μM) were used in the final hit confirmation in order to distinguish all true hits.
Chemical structures of selected compounds are shown in these Tables and in FIGS. 4 and 5.

Where [1] appears, read: inhibition of ANG-catalyzed cleavage of an RNA oligonucleotide, 20 mM Hepes, 100 mM NaCl, 37° C.
Where [2] appears, read: inhibition of ANG-catalyzed cleavage of an RNA oligonucleotide, 20 mM Hepes, 100 mM NaCl, 37° C., read-out: KI.

angiogenin (ANG), sequence (P03950 25-147): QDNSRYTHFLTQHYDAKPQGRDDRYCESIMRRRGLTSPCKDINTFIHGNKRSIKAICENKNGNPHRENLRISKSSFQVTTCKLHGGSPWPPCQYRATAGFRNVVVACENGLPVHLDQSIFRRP

One may read the Ki as the dissociation constant of the complex between target and ligand, obtained from inhibition or displacement. `Cc1cc(-c2ccc(/N=N/c3c(N)ccc4cc(S(=O)(=O)O)ccc34)c(C)c2)ccc1N` [prBZBP]: where the note is “read-out: KI”, the Ki worked out at 20 µM. The same measure, in the same setting: then `O=C(Nc1ccc2cc(S(=O)(=O)O)cc(S(=O)(=O)O)c2c1)Nc1ccc2cc(S(=O)(=O)O)cc(S(=O)(=O)O)c2c1` [NCI-12857], with 336 µM; and `O=C(Nc1ccc(/C=C/c2ccc(NC(=O)c3cc(S(=O)(=O)O)c4ccncc4c3O)cc2S(=O)(=O)O)c(S(=O)(=O)O)c1)c1cc(S(=O)(=O)O)c2ccncc2c1O` [NCI-665534-P], with 5 µM; and `O=S(=O)(O)c1cc(O)c2c(/N=N/c3ccc(/N=N/c4c(S(=O)(=O)O)cc5cc(Nc6ccccc6)ccc5c4O)c4ccccc34)cc(S(=O)(=O)O)cc2c1` [NCI-75916], with 125 µM. On the same count and under the same terms, in the case of `Cc1cc(-c2ccc(/N=N/c3c(O)ccc4cc(S(=O)(=O)O)cc(S(=O)(=O)O)c34)c(C)c2)ccc1/N=N/c1c(O)c(S(=O)(=O)O)cc2cc(S(=O)(=O)O)ccc12` [NCI-65568] it was 23 µM; in that of `Nc1ccc2cc(S(=O)(=O)O)c(/N=N/c3ccc(-c4ccc(/N=N/c5c(S(=O)(=O)O)cc6cc(S(=O)(=O)O)c(/N=N/c7cccc([N+](=O)[O-])c7)c(N)c6c5O)cc4)cc3)c(O)c2c1` [NCI-79744], 244 µM; in that of `Nc1ccc2cc(S(=O)(=O)O)cc(O)c2c1/N=N/c1ccc(-c2ccc(/N=N/c3ccc(O)c(C(=O)O)c3)cc2)cc1` [direct red 1], 14 µM. As for `CC(=O)Nc1ccc(/N=N/c2ccc3cc(S(=O)(=O)O)cc(NC(C)=O)c3c2O)cc1` [NCI-73416], the Ki (read-out: KI) stood at 77 µM. The same measure, in the same setting: then `CC(=O)Nc1ccc(/N=N/c2c(N)ccc3cc(S(=O)(=O)O)cc(O)c23)c(S(=O)(=O)O)c1` [acid red 37], with 70 µM.

With `O=C(O)c1cc(O)c(O)c(OC(=O)c2cc(O)c(O)c(O)c2CNc2ccc3cc(S(=O)(=O)O)cc(S(=O)(=O)O)c3c2)c1` [NCI-42067], for the setting “read-out: KI”, the Ki worked out at 245 µM. The same measure, in the same setting: in the case of `O=S(=O)(O)c1cc(S(=O)(=O)O)c2c(/N=N/c3ccccc3)c(O)ccc2c1` [Orange G] it was 83 µM; in that of `Nc1ccc(C(=O)Nc2cc(S(=O)(=O)O)cc3cccc(O)c23)cc1` [NCI-37176], 104 µM. `Nc1ccc2cc(S(=O)(=O)O)cc(O)c2c1/N=N/c1ccc(-c2ccc(/N=N/c3c(N)ccc4cc(S(=O)(=O)O)cc(O)c34)cc2)cc1` [NCI-75778]: the Ki (read-out: KI) worked out at 171 µM. Same read-out and setting: then `O=S(=O)(O)c1cc(S(=O)(=O)O)c2c(/N=N/c3ccc(S(=O)(=O)O)c4ccccc34)c(O)ccc2c1` [new coccine], with 69 µM. For the compound `Nc1ccc(/N=N/c2ccc(/C=C/c3ccc(/N=N/c4ccc(N)c5ccc(S(=O)(=O)O)cc45)cc3S(=O)(=O)O)c(S(=O)(=O)O)c2)c2cc(S(=O)(=O)O)ccc12` [NCI-34933], the Ki (read-out: KI) stood at 172 µM. The same measure, in the same setting: then `Cc1ccc(/N=N/c2c(N)ccc3cc(S(=O)(=O)O)ccc23)c(C)c1` [NCI-45569], with 194 µM; and `Cc1cc(/N=N/c2ccc(/N=N/c3c(O)c(S(=O)(=O)O)cc4cc(S(=O)(=O)O)ccc34)cc2C)ccc1/N=N/c1ccc2cc(S(=O)(=O)O)cc(S(=O)(=O)O)c2c1` [NCI-65847], with 38 µM. Regarding `O=C(Nc1cc(S(=O)(=O)O)cc2cc(S(=O)(=O)O)cc(O)c12)c1ccccc1` [NCI-16169], the KI result under setting [1] is recorded as “in- active at 75 uM”. Regarding `Nc1cccc(C(=O)Nc2ccc3c(O)cc(S(=O)(=O)O)cc3c2)c1` [NCI-1743], the KI result under setting [1] was “in- active at 75 uM”.

Take `O=S(=O)(O)c1ccc(/N=N/c2ccc(/N=N/c3c(O)ccc4cc(S(=O)(=O)O)cc(S(=O)(=O)O)c34)cc2)cc1` [NCI-65546]: the inhibitory constant (Ki) (read-out: KI) is 129 µM. On the same count and under the same terms, in the case of `Cc1nn(-c2cc(S(=O)(=O)O)ccc2Cl)c(O)c1/N=N/c1c(NC(=O)c2ccc(N)cc2)ccc2cc(S(=O)(=O)O)ccc12` [NCI-75963] it was 129 µM; in that of `Cc1cc(-c2ccc(/N=N/c3c(N)c(S(=O)(=O)O)cc4cc(S(=O)(=O)O)ccc34)c(C)c2)ccc1/N=N/c1cc(S(=O)(=O)O)c2ccccc2c1N` [NCI-7815], 14 µM. On the same count and under the same terms, then `O=C(O)c1c(O)ccc(/N=N/c2ccc(/N=N/c3ccc4c(S(=O)(=O)O)cccc4c3O)c3ccccc23)c1O` [NCI-47735], with 85 µM. Still for that read-out and setting: in the case of `Nc1ccc2cc(S(=O)(=O)O)cc(O)c2c1N=Nc1ccccc1S(=O)(=O)c1ccccc1` [S321443] it was greater than 500 µM. Turning to `O=S(=O)(O)c1cc(O)c2c(O)c(N=Nc3c(O)c(S(=O)(=O)O)cc4cc(S(=O)(=O)O)cc(O)c34)c(S(=O)(=O)O)cc2c1`, the Ki under setting [2] is greater than 1000 µM. Turning to `O=S(=O)(O)c1ccc2c(/N=N/c3ccc(S(=O)(=O)O)c4ccccc34)c(O)c(S(=O)(=O)O)cc2c1` [Amaranth], the Ki (read-out: KI) is 60 µM. Same read-out and setting: in the case of `O=C(Nc1ccc2cc(S(=O)(=O)O)ccc2c1)c1ccc(/N=N/c2cc(S(=O)(=O)O)c3ccccc3c2O)cc1` [NCI-45608] it was 75 µM; in that of `Cc1cc(-c2ccc(/N=N/c3c(N)c(S(=O)(=O)O)cc4cc(S(=O)(=O)O)ccc34)c(C)c2)ccc1/N=N/c1c(N)ccc2cc(S(=O)(=O)O)ccc12` [NCI-16224, direct red 34], 5.5 µM.

As for `Cc1ccc(C(=O)Nc2ccc(S(=O)(=O)O)c3cc(S(=O)(=O)O)cc(S(=O)(=O)O)c23)cc1NC(=O)c1cccc(NC(=O)Nc2cccc(C(=O)Nc3cc(C(=O)Nc4ccc(S(=O)(=O)O)c5cc(S(=O)(=O)O)cc(S(=O)(=O)O)c45)ccc3C)c2)c1` [suramin, reference compound], for the setting “read-out: KI”, the Ki was found to be 10 µM. Still for that read-out and setting: in the case of `Nc1ccc2cc(S(=O)(=O)O)cc(O)c2c1/N=N/c1ccc(-c2ccc(/N=N/c3c(S(=O)(=O)O)cc4cc(S(=O)(=O)O)c(/N=N/c5ccc([N+](=O)[O-])cc5)c(N)c4c3O)cc2)cc1` [NCI-65855] it was 129 µM; in that of `Nc1ccc(/N=N/c2ccc(-c3ccc(S(=O)(=O)O)cc3)cc2)c2ccc(S(=O)(=O)O)cc12` [NCI-724225], 81 µM. The same measure, in the same setting: then `Nc1c(/N=N/c2cc(Cl)ccc2Cl)c(S(=O)(=O)O)cc2cc(S(=O)(=O)O)c(/N=N/c3ccc(Sc4ccc(/N=N/c5ccc(O)cc5)cc4)cc3)c(O)c12` [NCI-75661], with 76 µM; and `O=S(=O)(O)c1ccc(/N=N/c2c(O)ccc3cc(S(=O)(=O)O)ccc23)cc1` [sunset yellow], with 85 µM. Take eriochrome black T: under setting [2], the Ki is 50 µM. In the case of `Cc1ccc(/N=N/c2c(O)ccc3cc(S(=O)(=O)O)ccc23)cc1` [NCI-7814], for the setting “read-out: KI”, the Ki was found to be 175 µM.

The compound `O=C(O)CC(NC(=O)CP(=O)(O)O)C(=O)O` (stereo not shown) [NCI-224131] had a Ki greater than 500 µM.

For the compound `Nc1c(OCC(=O)O)ccc2cc(S(=O)(=O)O)ccc12` [NCI-16163], the KI result under setting [1] is “in- active at 75 uM”. As for `O=C(O)c1cc(/N=N/c2ccc(/N=N/c3c(Nc4ccccc4)ccc4cc(S(=O)(=O)O)cc(O)c34)cc2)ccc1O` [NCI-45612], the Ki (read-out: KI) was 158 µM.

As for `O=[N+]([O-])c1ccc(/N=N/c2c(S(=O)(=O)O)cc3cc(S(=O)(=O)O)ccc3c2O)c([N+](=O)[O-])c1` [NCI-9360], the Ki (read-out: KI) was 307 µM.

cefsulodin [reference compound]: under setting [2], the Ki worked out at 201 µM. Turning to `O=[N+]([O-])c1cccc(/N=N/c2c(O)c(S(=O)(=O)O)cc3cc(S(=O)(=O)O)ccc23)c1` [NCI-45541], the Ki (read-out: KI) came out at 244 µM. With `CC(=O)Nc1ccc(N=Nc2c(S(=O)(=O)O)cc3cc(S(=O)(=O)O)cc(NC(C)=O)c3c2O)cc1` [acid violet 7], the Ki under setting [2] worked out at 71 µM.

Consider `O=C(Nc1ccc2cc(S(=O)(=O)O)ccc2c1)c1ccc([N+](=O)[O-])cc1` [NCI-37169], for which, under “read-out: KI”, the Ki amounted to 950 µM. Still for that read-out and setting: in the case of `COc1cc(-c2ccc(/N=N/c3ccc4c(S(=O)(=O)O)cc(S(=O)(=O)O)c(N)c4c3O)c(OC)c2)ccc1/N=N/c1ccc2c(S(=O)(=O)O)cc(S(=O)(=O)O)c(N)c2c1O` [NCI-9617, Chicago Sky Blue 6B] it was 5 µM; in that of `CC(=O)Nc1ccc(/N=N/c2ccc(N)c3cc(S(=O)(=O)O)ccc23)cc1` [NCI-45571], 300 µM. Take `O=C(c1ccc(C(=O)O)c(NC(=O)c2cccc3ccccc23)c1)c1ccc(C(=O)O)c(NC(=O)c2cccc3ccccc23)c1` [CB-181431, 4,4′-dicarboxy-3,3′-bis(naphthylamido)-diphenylmethanone]: the Ki (20 mM Hepes, 100 mM NaCl, pH 7.0, 37° C., read-out: Ki for inhibition of the ribonucleolytic activity of angiogenin) was found to be 41 µM. As for `O=[N+]([O-])c1ccc(/N=N/c2c(S(=O)(=O)O)cc3cc(S(=O)(=O)O)cc(O)c3c2O)cc1` [NCI-45542], the Ki (read-out: KI) was found to be 426 µM. Consider `O=C(O)c1ccccc1/N=N/c1c(O)c(S(=O)(=O)O)cc2cc(S(=O)(=O)O)ccc12` [NCI-12455], for which the inhibitory constant (Ki) (read-out: KI) came to 239 µM. On the same count and under the same terms, then `Nc1ccc(C(=O)Nc2ccc(C(=O)Nc3ccc4c(O)cc(S(=O)(=O)O)cc4c3)cc2)cc1` [NCI-1741], with roughly 600 µM; and `O=S(=O)(O)c1cc(O)c2ccc(Nc3ccc4c(O)cc(S(=O)(=O)O)cc4c3)cc2c1` [NCI-1698], with 172 µM; and `O=S(=O)(O)c1ccc(/N=N/c2ccc(/N=N/c3c(O)ccc4cc(S(=O)(=O)O)ccc34)cc2)cc1` [NCI-58047], with 36 µM. Same read-out and setting: then `Nc1cc(S(=O)(=O)O)cc2cc(S(=O)(=O)O)c(/N=N/c3ccc([N+](=O)[O-])cc3)c(O)c12` [NCI-45550], with 183 µM. As to `O=S(=O)(O)c1cc(O)c2c(/N=C/c3ccccc3O)cc(S(=O)(=O)O)cc2c1` [NCI-88947], the KI entry under setting [1] was “in- active at 75 uM”. Regarding `Cc1cc(/N=N/c2ccc(NC(=O)c3ccccc3)c3ccc(S(=O)(=O)O)cc23)ccc1/N=N/c1ccc2c(O)cc(S(=O)(=O)O)cc2c1` [NCI-65844], the Ki (read-out: KI) is 108 µM. For the compound `Nc1ccc(/N=N/c2ccc(-c3ccc(/N=N/c4ccc(N)c5cc(S(=O)(=O)O)ccc45)cc3)cc2)c2ccc(S(=O)(=O)O)cc12` [NCI-45618], the Ki (read-out: KI) was found to be 15 µM.
